Test results as given in the kinase profiling compilation of Christmann-Franck et al. (2016).

Legend:
Assay in all cases: radiometric filter-binding kinase assay, Kinase HotSpot
Details in all cases: compound 0.5 µM; ATP 10 µM
[1] = system: MAP2K6 (human), P52564 [S207E/T211E]
ADRBK2 (human) = ADRBK2 (human) (UniProt P35626)
CSNK1G1 (human) = CSNK1G1 (human) (UniProt Q9HCP0)
NEK7 (human) = NEK7 (human) (UniProt Q8TDX7)
MAP3K5 (human) = MAP3K5 (human) (UniProt Q99683)
[2] = system: FLT4 (human), P35916 [Q890H]
BRSK2 (human) = BRSK2 (human) (UniProt Q8IWQ3)
ROS1 (human) = ROS1 (human) (UniProt P08922)
FYN (human) = FYN (human) (UniProt P06241)
STK39 (human) = STK39 (human) (UniProt Q9UEW8)
PTK2 (human) = PTK2 (human) (UniProt Q05397)
CLK1 (human) = CLK1 (human) (UniProt P49759)
MAPK11 (human) = MAPK11 (human) (UniProt Q15759)
PTK2B (human) = PTK2B (human) (UniProt Q14289)
ROCK2 (human) = ROCK2 (human) (UniProt O75116)
MAPK9 (human) = MAPK9 (human) (UniProt P45984)
ADRBK1 (human) = ADRBK1 (human) (UniProt P25098)
PNCK (human) = PNCK (human) (UniProt Q6P2M8)
CDK5 CDK5R1 p25 (human) = CDK5 CDK5R1 p25 (human) (UniProt Q00535+Q15078)
RPS6KB2 (human) = RPS6KB2 (human) (UniProt Q9UBS0)
WNK2 (human) = WNK2 (human) (UniProt Q9Y3S1)
TEC (human) = TEC (human) (UniProt P42680)
CDK2 CCNE1 (human) = CDK2 CCNE1 (human) (UniProt P24941+P24864)
PRKCI (human) = PRKCI (human) (UniProt P41743)
PIM1 (human) = PIM1 (human) (UniProt P11309)
GRK7 (human) = GRK7 (human) (UniProt Q8WTQ7)
MELK (human) = MELK (human) (UniProt Q14680)
EPHA4 (human) = EPHA4 (human) (UniProt P54764)
CDK6 CCND1 (human) = CDK6 CCND1 (human) (UniProt Q00534+P24385)
PDPK1 (human) = PDPK1 (human) (UniProt O15530)
NEK2 (human) = NEK2 (human) (UniProt P51955)
TYRO3 (human) = TYRO3 (human) (UniProt Q06418)
MARK4 (human) = MARK4 (human) (UniProt Q96L34)
CHEK2 (human) = CHEK2 (human) (UniProt O96017)
MARK3 (human) = MARK3 (human) (UniProt P27448)
RAF1 (human) = RAF1 (human) (UniProt P04049)
LRRK2 (human) = LRRK2 (human) (UniProt Q5S007)
CDK1 CCNA2 (human) = CDK1 CCNA2 (human) (UniProt P06493+P20248)
TBK1 (human) = TBK1 (human) (UniProt Q9UHD2)
MINK1 (human) = MINK1 (human) (UniProt Q8N4C8)
EPHA1 (human) = EPHA1 (human) (UniProt P21709)
LTK (human) = LTK (human) (UniProt P29376)

Sequence of WNK2 (human) (Q9Y3S1 whole entry, looked up): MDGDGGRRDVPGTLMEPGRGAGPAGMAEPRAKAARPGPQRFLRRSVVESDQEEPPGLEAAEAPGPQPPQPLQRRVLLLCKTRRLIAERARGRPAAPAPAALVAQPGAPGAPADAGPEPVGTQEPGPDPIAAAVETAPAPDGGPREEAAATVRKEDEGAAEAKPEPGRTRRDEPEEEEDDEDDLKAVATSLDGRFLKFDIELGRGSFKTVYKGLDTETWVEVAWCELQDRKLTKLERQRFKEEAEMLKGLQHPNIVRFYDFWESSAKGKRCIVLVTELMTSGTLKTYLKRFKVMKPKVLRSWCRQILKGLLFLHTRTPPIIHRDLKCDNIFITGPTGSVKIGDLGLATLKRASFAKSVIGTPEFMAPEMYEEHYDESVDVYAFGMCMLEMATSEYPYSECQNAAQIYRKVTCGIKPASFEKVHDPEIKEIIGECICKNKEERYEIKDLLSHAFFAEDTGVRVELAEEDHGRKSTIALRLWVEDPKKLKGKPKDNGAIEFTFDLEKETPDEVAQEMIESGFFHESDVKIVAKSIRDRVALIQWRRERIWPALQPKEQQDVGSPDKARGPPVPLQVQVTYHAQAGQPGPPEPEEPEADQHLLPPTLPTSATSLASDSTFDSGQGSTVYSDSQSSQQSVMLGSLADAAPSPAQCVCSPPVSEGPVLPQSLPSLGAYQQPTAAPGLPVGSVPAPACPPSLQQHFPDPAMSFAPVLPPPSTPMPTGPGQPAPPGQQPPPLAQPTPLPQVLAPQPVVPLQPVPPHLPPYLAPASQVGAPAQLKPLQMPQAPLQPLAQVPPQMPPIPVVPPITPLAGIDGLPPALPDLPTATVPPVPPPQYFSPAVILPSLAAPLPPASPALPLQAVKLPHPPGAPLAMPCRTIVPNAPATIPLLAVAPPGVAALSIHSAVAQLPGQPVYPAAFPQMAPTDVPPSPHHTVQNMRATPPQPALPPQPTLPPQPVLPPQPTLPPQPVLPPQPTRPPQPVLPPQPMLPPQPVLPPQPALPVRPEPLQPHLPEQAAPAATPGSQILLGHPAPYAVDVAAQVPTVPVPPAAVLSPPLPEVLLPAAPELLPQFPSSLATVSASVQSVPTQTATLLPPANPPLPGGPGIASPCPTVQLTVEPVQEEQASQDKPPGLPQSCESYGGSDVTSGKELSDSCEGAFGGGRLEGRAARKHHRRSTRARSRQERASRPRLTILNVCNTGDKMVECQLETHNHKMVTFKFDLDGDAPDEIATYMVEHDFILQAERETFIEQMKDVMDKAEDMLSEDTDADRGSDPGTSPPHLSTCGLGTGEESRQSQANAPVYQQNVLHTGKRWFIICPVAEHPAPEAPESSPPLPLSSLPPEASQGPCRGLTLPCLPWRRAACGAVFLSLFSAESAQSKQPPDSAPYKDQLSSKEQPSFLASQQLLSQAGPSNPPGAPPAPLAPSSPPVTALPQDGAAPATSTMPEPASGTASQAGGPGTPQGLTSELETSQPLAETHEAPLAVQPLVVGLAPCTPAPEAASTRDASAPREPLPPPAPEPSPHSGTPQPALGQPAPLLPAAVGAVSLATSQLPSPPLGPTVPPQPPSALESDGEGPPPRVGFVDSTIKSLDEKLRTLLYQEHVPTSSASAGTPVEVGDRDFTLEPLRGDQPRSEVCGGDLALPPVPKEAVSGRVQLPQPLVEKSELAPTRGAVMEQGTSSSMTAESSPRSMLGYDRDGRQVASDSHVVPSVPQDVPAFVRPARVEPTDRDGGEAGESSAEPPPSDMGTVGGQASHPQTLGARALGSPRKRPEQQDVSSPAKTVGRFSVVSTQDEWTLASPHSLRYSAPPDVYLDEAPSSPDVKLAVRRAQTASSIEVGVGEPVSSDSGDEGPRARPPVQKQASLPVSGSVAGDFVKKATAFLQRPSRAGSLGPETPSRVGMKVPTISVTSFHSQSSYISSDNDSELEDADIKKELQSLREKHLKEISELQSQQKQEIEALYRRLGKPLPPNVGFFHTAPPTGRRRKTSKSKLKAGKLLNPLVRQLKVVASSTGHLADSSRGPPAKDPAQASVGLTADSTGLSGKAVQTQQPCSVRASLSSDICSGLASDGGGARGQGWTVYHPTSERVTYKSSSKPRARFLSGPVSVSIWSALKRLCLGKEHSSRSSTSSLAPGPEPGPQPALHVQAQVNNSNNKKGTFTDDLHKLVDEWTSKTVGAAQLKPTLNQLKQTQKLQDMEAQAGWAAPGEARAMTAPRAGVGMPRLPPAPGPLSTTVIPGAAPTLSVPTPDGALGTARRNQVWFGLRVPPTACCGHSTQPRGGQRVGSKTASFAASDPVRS
Sequence of CDK2 CCNE1 (human) (P24864 whole entry, looked up, other chains not shown): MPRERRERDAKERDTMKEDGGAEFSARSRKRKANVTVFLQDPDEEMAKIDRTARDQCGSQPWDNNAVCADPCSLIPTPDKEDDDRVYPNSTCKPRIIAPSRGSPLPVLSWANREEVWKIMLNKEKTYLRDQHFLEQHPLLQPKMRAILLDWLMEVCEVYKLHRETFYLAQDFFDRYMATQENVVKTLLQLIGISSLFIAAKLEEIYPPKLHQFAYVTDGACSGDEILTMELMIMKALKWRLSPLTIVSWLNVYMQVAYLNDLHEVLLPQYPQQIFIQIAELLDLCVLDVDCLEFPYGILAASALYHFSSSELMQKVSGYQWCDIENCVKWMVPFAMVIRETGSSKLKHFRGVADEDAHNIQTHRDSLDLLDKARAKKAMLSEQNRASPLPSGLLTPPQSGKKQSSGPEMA
Sequence of TYRO3 (human) (Q06418 whole entry, looked up): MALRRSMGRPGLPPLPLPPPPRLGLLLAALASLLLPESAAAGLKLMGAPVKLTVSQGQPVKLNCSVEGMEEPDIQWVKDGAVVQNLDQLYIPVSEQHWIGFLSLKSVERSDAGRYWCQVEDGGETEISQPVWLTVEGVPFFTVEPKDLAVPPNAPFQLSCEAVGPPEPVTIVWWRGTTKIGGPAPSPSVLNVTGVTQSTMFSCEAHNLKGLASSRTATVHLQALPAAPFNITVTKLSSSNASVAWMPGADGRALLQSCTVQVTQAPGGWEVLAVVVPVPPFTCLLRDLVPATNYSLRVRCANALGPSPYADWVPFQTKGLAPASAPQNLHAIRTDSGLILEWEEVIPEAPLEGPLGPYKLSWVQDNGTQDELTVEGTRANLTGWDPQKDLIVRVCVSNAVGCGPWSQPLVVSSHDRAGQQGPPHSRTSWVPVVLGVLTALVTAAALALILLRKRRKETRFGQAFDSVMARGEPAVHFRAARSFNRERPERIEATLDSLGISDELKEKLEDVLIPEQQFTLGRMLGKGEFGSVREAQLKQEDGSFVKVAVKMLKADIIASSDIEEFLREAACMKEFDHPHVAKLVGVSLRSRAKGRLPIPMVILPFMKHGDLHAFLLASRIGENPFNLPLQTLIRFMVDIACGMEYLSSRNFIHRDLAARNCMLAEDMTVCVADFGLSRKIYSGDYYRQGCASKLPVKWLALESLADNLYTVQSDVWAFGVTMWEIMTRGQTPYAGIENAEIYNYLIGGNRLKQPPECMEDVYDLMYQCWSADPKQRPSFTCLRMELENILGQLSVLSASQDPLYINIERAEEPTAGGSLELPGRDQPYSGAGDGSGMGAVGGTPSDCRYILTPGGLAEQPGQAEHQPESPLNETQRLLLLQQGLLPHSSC
Sequence of EPHA1 (human) (P21709 whole entry, looked up): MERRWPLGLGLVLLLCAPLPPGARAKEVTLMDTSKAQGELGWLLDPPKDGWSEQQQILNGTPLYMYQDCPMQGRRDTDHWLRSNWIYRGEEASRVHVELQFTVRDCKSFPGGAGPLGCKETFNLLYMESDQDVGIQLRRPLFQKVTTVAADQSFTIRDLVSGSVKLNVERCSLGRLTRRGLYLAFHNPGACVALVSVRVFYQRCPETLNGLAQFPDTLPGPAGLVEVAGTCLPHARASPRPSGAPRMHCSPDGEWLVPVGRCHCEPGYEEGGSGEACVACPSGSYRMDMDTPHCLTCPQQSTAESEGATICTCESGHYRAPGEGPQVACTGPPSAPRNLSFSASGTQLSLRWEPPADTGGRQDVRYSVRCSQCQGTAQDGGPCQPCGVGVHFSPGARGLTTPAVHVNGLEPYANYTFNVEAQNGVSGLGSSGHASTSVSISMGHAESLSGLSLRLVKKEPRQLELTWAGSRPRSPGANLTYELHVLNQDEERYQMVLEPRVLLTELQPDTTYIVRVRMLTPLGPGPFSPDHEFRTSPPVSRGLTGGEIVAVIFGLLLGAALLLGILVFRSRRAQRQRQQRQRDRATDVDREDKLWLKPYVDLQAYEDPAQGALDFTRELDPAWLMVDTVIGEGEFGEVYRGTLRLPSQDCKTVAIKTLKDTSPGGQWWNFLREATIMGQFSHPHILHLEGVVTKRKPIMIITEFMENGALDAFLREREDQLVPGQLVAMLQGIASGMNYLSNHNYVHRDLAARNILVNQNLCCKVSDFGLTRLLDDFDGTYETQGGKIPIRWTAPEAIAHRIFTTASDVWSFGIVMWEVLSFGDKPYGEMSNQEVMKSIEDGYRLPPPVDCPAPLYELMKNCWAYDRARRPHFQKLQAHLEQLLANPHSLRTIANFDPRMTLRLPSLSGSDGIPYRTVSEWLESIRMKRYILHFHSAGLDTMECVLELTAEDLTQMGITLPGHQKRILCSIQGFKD
Sequence of MAPK11 (human) (Q15759 whole entry, looked up): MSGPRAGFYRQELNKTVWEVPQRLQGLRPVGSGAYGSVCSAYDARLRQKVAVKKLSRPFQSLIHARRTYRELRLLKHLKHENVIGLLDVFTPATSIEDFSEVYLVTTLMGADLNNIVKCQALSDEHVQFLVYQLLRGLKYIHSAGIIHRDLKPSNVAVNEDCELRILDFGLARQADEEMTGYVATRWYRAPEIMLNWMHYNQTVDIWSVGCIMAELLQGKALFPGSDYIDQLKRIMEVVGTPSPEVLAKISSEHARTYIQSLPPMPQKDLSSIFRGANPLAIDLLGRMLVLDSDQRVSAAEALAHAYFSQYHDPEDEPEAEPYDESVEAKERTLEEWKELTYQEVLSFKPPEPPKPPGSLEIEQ

CCCCc1c(-c2ccc(OC)cc2)[nH]c2nccnc12
residual activity [1]: 96% | residual activity (ADRBK2 (human)): 95.6% | residual activity (CSNK1G1 (human)): 93.3% | residual activity (NEK7 (human)): 107% | residual activity (MAP3K5 (human)): 95% | residual activity [2]: 81.1% | residual activity (BRSK2 (human)): 90.8% | residual activity (ROS1 (human)): 37.5% | residual activity (FYN (human)): 61.3% | residual activity (STK39 (human)): 77.8% | residual activity (PTK2 (human)): 81.7% | residual activity (CLK1 (human)): 102% | residual activity (MAPK11 (human)): 100% | residual activity (PTK2B (human)): 100% | residual activity (ROCK2 (human)): 97.2% | residual activity (MAPK9 (human)): 84.8% | residual activity (ADRBK1 (human)): 78.5% | residual activity (PNCK (human)): 120% | residual activity (CDK5 CDK5R1 p25 (human)): 41.3% | residual activity (RPS6KB2 (human)): 99.7% | residual activity (WNK2 (human)): 112% | residual activity (TEC (human)): 134% | residual activity (CDK2 CCNE1 (human)): 42.1% | residual activity (PRKCI (human)): 72.8% | residual activity (PIM1 (human)): 97% | residual activity (GRK7 (human)): 94.1% | residual activity (MELK (human)): 84.4% | residual activity (EPHA4 (human)): 85.5% | residual activity (CDK6 CCND1 (human)): 54.8% | residual activity (PDPK1 (human)): 102% | residual activity (NEK2 (human)): 115% | residual activity (TYRO3 (human)): 98.6% | residual activity (MARK4 (human)): 88.3% | residual activity (CHEK2 (human)): 72.8% | residual activity (MARK3 (human)): 91.2% | residual activity (RAF1 (human)): 99.9% | residual activity (LRRK2 (human)): 83% | residual activity (CDK1 CCNA2 (human)): 65.4% | residual activity (TBK1 (human)): 81.4% | residual activity (MINK1 (human)): 84.4% | residual activity (EPHA1 (human)): 67.9% | residual activity (LTK (human)): 83.9%

Cc1cncc2cccc(S(=O)(=O)N3CCCN(C(=O)CN)C[C@H]3C)c12
residual activity [1]: 107% | residual activity (ADRBK2 (human)): 95% | residual activity (CSNK1G1 (human)): 92.4% | residual activity (NEK7 (human)): 103% | residual activity (MAP3K5 (human)): 106% | residual activity [2]: 113% | residual activity (BRSK2 (human)): 85.4% | residual activity (ROS1 (human)): 60.3% | residual activity (FYN (human)): 94.2% | residual activity (STK39 (human)): 95.3% | residual activity (PTK2 (human)): 78% | residual activity (CLK1 (human)): 104% | residual activity (MAPK11 (human)): 101% | residual activity (PTK2B (human)): 92.5% | residual activity (ROCK2 (human)): 3.22% | residual activity (MAPK9 (human)): 106% | residual activity (ADRBK1 (human)): 101% | residual activity (PNCK (human)): 101% | residual activity (CDK5 CDK5R1 p25 (human)): 94.1% | residual activity (RPS6KB2 (human)): 99.3% | residual activity (WNK2 (human)): 98% | residual activity (TEC (human)): 117% | residual activity (CDK2 CCNE1 (human)): 92.3% | residual activity (PRKCI (human)): 87.4% | residual activity (PIM1 (human)): 105% | residual activity (GRK7 (human)): 88.8% | residual activity (MELK (human)): 83% | residual activity (EPHA4 (human)): 99.9% | residual activity (CDK6 CCND1 (human)): 99.8% | residual activity (PDPK1 (human)): 97.8% | residual activity (NEK2 (human)): 105% | residual activity (TYRO3 (human)): 98.9% | residual activity (MARK4 (human)): 95.7% | residual activity (CHEK2 (human)): 96.2% | residual activity (MARK3 (human)): 98.9% | residual activity (RAF1 (human)): 95.1% | residual activity (LRRK2 (human)): 54.6% | residual activity (CDK1 CCNA2 (human)): 89.2% | residual activity (TBK1 (human)): 95.7% | residual activity (MINK1 (human)): 97.2% | residual activity (EPHA1 (human)): 89.2% | residual activity (LTK (human)): 93%

N#C/C(=C\c1ccc(O)c(O)c1)C(=O)NCc1ccccc1
residual activity [1]: 127% | residual activity (ADRBK2 (human)): 91.4% | residual activity (CSNK1G1 (human)): 102% | residual activity (NEK7 (human)): 111% | residual activity (MAP3K5 (human)): 104% | residual activity [2]: 87.7% | residual activity (BRSK2 (human)): 99.3% | residual activity (ROS1 (human)): 101% | residual activity (FYN (human)): 116% | residual activity (STK39 (human)): 99.8% | residual activity (PTK2 (human)): 96.9% | residual activity (CLK1 (human)): 98.6% | residual activity (MAPK11 (human)): 98.7% | residual activity (PTK2B (human)): 92.6% | residual activity (ROCK2 (human)): 94% | residual activity (MAPK9 (human)): 103% | residual activity (ADRBK1 (human)): 96.6% | residual activity (PNCK (human)): 97.1% | residual activity (CDK5 CDK5R1 p25 (human)): 101% | residual activity (RPS6KB2 (human)): 94.7% | residual activity (WNK2 (human)): 104% | residual activity (TEC (human)): 123% | residual activity (CDK2 CCNE1 (human)): 96.4% | residual activity (PRKCI (human)): 96.4% | residual activity (PIM1 (human)): 108% | residual activity (GRK7 (human)): 103% | residual activity (MELK (human)): 100% | residual activity (EPHA4 (human)): 99.5% | residual activity (CDK6 CCND1 (human)): 95.6% | residual activity (PDPK1 (human)): 74% | residual activity (NEK2 (human)): 102% | residual activity (TYRO3 (human)): 109% | residual activity (MARK4 (human)): 104% | residual activity (CHEK2 (human)): 97.5% | residual activity (MARK3 (human)): 97.5% | residual activity (RAF1 (human)): 92.8% | residual activity (LRRK2 (human)): 101% | residual activity (CDK1 CCNA2 (human)): 92.8% | residual activity (TBK1 (human)): 98.3% | residual activity (MINK1 (human)): 97.9% | residual activity (EPHA1 (human)): 99.4% | residual activity (LTK (human)): 91.4%

c1ccc2c(-c3ccncc3)c[nH]c2c1
residual activity [1]: 106% | residual activity (ADRBK2 (human)): 95.4% | residual activity (CSNK1G1 (human)): 79.2% | residual activity (NEK7 (human)): 104% | residual activity (MAP3K5 (human)): 109% | residual activity [2]: 119% | residual activity (BRSK2 (human)): 98.6% | residual activity (ROS1 (human)): 81.6% | residual activity (FYN (human)): 98.7% | residual activity (STK39 (human)): 99.8% | residual activity (PTK2 (human)): 97.7% | residual activity (CLK1 (human)): 105% | residual activity (MAPK11 (human)): 112% | residual activity (PTK2B (human)): 95.3% | residual activity (ROCK2 (human)): 71.9% | residual activity (MAPK9 (human)): 103% | residual activity (ADRBK1 (human)): 97.7% | residual activity (PNCK (human)): 98.5% | residual activity (CDK5 CDK5R1 p25 (human)): 92% | residual activity (RPS6KB2 (human)): 97.8% | residual activity (WNK2 (human)): 96.9% | residual activity (TEC (human)): 123% | residual activity (CDK2 CCNE1 (human)): 91.7% | residual activity (PRKCI (human)): 82.4% | residual activity (PIM1 (human)): 93.5% | residual activity (GRK7 (human)): 98.4% | residual activity (MELK (human)): 102% | residual activity (EPHA4 (human)): 108% | residual activity (CDK6 CCND1 (human)): 97.6% | residual activity (PDPK1 (human)): 96.6% | residual activity (NEK2 (human)): 106% | residual activity (TYRO3 (human)): 98.1% | residual activity (MARK4 (human)): 94.7% | residual activity (CHEK2 (human)): 99.3% | residual activity (MARK3 (human)): 98% | residual activity (RAF1 (human)): 93.2% | residual activity (LRRK2 (human)): 92.8% | residual activity (CDK1 CCNA2 (human)): 90.6% | residual activity (TBK1 (human)): 93.4% | residual activity (MINK1 (human)): 84.6% | residual activity (EPHA1 (human)): 105% | residual activity (LTK (human)): 103%
